Experimental data reported in US9758524B2, “4-imidazopyridazin-1-yl-benzamides as Btk inhibitors” (Merck Sharp & Dohme B.V., priority 2011, dated 2017).
Where two headings read alike, the source gives them in different places.

What was measured:
FynT enzyme = FynT enzyme (Homo sapiens (Human), UniProt P06241); assay: FynT enzyme activity (IMAP fluorescence polarization assay); type: biochemical; conditions: 60 min pre-incubation, 0.2 μM ATP
Outline: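 Human FynT pre-incubated with compounds 60 min at room temperature, then reacted 2 h at room temperature with fluorescein-labelled p34cdc2 peptide (100 nM final). Stopped with IMAP binding solution; fluorescence polarization read after 60 min. Activity as % of ±ATP control difference; EC50 by curve fitting.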

Btk enzyme (His-Btk) = Btk enzyme (His-Btk) (Homo sapiens (Human), UniProt Q06187); assay: Btk enzyme activity (IMAP fluorescence polarization assay)
Sequence of Btk enzyme (His-Btk) (Q06187 whole entry): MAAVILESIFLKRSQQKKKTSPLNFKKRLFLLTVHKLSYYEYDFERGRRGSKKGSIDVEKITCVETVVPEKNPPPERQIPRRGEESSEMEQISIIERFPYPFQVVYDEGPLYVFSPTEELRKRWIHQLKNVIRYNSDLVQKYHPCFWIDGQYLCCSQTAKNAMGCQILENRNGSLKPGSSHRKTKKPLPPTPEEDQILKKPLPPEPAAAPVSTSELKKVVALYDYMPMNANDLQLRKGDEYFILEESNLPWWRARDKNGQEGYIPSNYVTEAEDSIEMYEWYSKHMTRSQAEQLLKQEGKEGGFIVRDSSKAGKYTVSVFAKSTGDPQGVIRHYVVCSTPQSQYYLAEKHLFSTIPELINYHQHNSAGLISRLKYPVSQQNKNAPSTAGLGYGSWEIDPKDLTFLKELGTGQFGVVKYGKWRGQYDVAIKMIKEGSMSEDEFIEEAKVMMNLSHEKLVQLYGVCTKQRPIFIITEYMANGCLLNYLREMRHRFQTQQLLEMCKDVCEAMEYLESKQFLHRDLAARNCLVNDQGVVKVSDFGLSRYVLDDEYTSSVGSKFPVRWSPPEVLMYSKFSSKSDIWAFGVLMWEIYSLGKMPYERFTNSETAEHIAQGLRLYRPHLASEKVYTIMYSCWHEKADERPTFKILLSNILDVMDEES
Experimental: Inhibition of kinase activity can be measured using the Immobilized Metal Assay for Phosphochemicals (IMAP) assay. IMAP is a homogeneous fluorescence polarization (FP) assay based on affinity capture of phosphorylated peptide substrates. IMAP uses fluorescein-labeled peptide substrates that, upon phosphorylation by a protein kinase, bind to so-called IMAP nanoparticles, which are derivatized with trivalent metal complexes.
Final peptide substrate concentration in assay is 50 nM.

Lck enzyme = Lck enzyme (Homo sapiens (Human), UniProt P06239); assay: Lck enzyme activity (IMAP fluorescence polarization assay); conditions: read-out: EC50 Lck activity values; IMAP, 60 min pre-incubation, 6 μM ATP; bin bound in μM
Sequence of Lck enzyme (P06239 whole entry): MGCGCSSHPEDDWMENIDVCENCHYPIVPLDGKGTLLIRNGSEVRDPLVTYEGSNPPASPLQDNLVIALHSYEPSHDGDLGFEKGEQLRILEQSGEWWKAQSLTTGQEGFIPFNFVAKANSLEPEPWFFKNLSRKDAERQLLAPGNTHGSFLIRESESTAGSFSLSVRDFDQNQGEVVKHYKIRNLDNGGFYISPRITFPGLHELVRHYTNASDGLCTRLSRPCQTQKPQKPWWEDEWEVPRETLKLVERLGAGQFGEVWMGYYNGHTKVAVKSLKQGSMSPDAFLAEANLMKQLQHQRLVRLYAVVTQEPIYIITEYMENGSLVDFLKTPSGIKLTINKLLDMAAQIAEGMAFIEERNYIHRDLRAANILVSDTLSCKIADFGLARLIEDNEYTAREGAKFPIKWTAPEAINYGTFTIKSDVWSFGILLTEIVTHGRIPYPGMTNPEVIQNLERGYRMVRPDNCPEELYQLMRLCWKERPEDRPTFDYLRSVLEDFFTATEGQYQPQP

Src enzyme = Src enzyme (Homo sapiens (Human), UniProt P12931); assay: Src enzyme activity (IMAP fluorescence polarization assay); conditions: read-out: EC50 Src activity values; IMAP, 60 min pre-incubation, 4 μM ATP
Sequence of Src enzyme (P12931 whole entry, looked up): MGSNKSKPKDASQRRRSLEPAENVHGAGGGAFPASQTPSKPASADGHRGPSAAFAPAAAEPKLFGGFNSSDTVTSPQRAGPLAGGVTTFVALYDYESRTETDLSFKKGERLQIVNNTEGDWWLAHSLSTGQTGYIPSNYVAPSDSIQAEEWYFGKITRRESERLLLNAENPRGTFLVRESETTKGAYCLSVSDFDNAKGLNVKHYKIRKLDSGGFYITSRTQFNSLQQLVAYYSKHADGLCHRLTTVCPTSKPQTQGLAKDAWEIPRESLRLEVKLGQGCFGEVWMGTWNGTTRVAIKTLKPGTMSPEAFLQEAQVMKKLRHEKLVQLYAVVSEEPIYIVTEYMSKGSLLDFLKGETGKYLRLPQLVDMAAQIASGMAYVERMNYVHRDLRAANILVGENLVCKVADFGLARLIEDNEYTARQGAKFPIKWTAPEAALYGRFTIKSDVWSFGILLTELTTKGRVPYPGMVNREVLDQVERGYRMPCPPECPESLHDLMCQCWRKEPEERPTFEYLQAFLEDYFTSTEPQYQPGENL

Lyn enzyme = Lyn enzyme (Homo sapiens (Human), UniProt P07948); assay: Lyn enzyme activity (IMAP fluorescence polarization assay)
Sequence of Lyn enzyme (P07948 whole entry): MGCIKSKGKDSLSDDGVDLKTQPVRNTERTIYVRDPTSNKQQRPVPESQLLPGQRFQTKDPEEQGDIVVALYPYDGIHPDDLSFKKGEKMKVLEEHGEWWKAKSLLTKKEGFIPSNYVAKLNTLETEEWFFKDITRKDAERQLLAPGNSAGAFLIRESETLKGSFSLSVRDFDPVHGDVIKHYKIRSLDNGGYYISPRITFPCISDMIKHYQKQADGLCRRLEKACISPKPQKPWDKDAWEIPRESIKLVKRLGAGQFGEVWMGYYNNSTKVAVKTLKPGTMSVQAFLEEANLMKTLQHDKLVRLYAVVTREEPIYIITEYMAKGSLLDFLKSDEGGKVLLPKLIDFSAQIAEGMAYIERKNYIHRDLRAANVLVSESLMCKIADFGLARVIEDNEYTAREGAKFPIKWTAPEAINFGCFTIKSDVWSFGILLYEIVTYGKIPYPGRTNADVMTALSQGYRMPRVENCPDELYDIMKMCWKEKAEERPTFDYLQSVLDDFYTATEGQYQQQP

[1] = IMAP, 60 min pre-incubation, 5 μM ATP, bin bound in μM
[2] = read-out: EC50 Lyn activity values, 60 min pre-incubation, 2 μM ATP, bin bound in μM
[3] = IMAP, 60 min pre-incubation, 5 μM ATP, bin bound in nM
[4] = read-out: EC50 Btk activity values, IMAP, 60 min pre-incubation, 5 μM ATP, bin bound in nM

Sequence of FynT enzyme (P06241 other isoform, or with tags, fused parts or gaps): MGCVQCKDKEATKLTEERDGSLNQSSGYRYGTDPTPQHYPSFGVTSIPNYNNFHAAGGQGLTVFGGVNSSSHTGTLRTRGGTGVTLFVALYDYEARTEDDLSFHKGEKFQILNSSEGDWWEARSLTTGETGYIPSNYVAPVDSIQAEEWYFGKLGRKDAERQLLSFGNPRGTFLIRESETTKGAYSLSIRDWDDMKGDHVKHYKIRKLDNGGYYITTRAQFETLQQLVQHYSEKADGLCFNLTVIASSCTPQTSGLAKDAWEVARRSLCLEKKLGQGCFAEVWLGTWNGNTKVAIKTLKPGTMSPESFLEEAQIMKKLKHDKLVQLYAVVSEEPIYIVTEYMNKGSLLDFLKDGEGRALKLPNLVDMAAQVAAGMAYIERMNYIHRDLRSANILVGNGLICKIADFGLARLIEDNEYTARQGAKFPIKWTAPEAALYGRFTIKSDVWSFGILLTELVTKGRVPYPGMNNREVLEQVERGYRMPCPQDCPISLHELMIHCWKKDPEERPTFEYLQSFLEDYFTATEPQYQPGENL

Structure (SMILES)	EC50 (FynT enzyme) [nM]	EC50 (Btk enzyme (His-Btk)) [nM]	EC50 Btk activity values (Btk enzyme (His-Btk); [1]) [µM]	EC50 (Lck enzyme) [µM]	EC50 (Src enzyme) [nM]	EC50 (Lyn enzyme; [2]) [µM]	EC50 Btk activity values (Btk enzyme (His-Btk); [3]) [µM]	EC50 (Lyn enzyme; EC50 Lyn activity values, 60 min pre-incubation, 2 μM ATP, bin bound in μM) [µM]	EC50 (Btk enzyme (His-Btk); [4]) [nM]
CCCc1ccnc(NC(=O)c2ccc(-c3nc([C@@H]4CCCN4C(=O)c4ccnc(Cl)n4)n4ccnc(N)c34)cc2)c1 [Example 79, (S)-4-(8-amino-3-(1-(2-chloropyrimidine-4-carbonyl)pyrrolidin-2-yl)imidazo[1,5-a]pyrazin-1-yl)-N-(4-propylpyridin-2-yl)benzamide]	≥ 1000			≥ 1	≥ 1000	≥ 1			< 10
CC#CC(=O)N1CCCC[C@H]1c1nc(-c2ccc(C(=O)Nc3ncc(CC)s3)cc2)c2c(N)nccn12 [Example 116, (S)-4-(8-amino-3-(1-but-2-ynoylpiperidin-2-yl)imidazo[1,5-a]pyrazin-1-yl)-N-(5-ethylthiazol-2-yl)benzamide]	≥ 1000			≥ 1	≥ 1000	≥ 1			< 10
Nc1nccn2c([C@@H]3CCCCN3C(=O)c3ccnc(Cl)n3)nc(-c3ccc(C(=O)Nc4cc(C(F)(F)F)ccn4)cc3)c12 [Example 115, (S)-4-(8-amino-3-(1-(2-chloropyrimidine-4-carbonyl)piperidin-2-yl)imidazo[1,5-a]pyrazin-1-yl)-N-(4-(trifluoromethyl)pyridin-2-yl)benzamide]	≥ 1000			≥ 1	≥ 1000	≥ 1			< 10
CCCc1ccnc(NC(=O)c2ccc(-c3nc([C@H](C)N(C)C(=O)/C=C/COC)n4ccnc(N)c34)cc2)c1 [Example 48, (S,E)-4-(8-amino-3-(1-(4-methoxy-N-methylbut-2-enamido)ethyl)imidazo[1,5-a]pyrazin-1-yl)-N-(4-propylpyridin-2-yl)benzamide]	≥ 1000			≥ 1	≥ 1000	≥ 1			< 10
C=CC(=O)NCc1nc(-c2ccc(C(=O)Nc3ccccn3)cc2)c2c(N)nccn12 [Example 29, 4-(3-(Acrylamidomethyl)-8-aminoimidazo[1,5-a]pyrazin-1-yl)-N-(pyridin-2-yl)benzamide]	≥ 1000			≥ 1	≥ 1000	≥ 1			< 10
C=CC(=O)N1CCCC[C@H]1c1nc(-c2ccc(C(=O)Nc3ncccn3)cc2)c2c(N)nccn12 [Example 20, (S)-4-(3-(1-Acryloylpiperidin-2-yl)-8-aminoimidazo[1,5-a]pyrazin-1-yl)-N-(pyrimidin-2-yl)benzamide]	≥ 1000			≥ 1	≥ 1000	≥ 1			< 10
CCC#CC(=O)N1CCC[C@H]1c1nc(-c2ccc(C(=O)Nc3ccccn3)cc2)c2c(N)nccn12 [Example 34, (S)-4-(8-Amino-3-(1-pent-2-ynoylpyrrolidin-2-yl)imidazo[1,5-a]pyrazin-1-yl)-N-(pyridin-2-yl)benzamide]	≥ 1000			≥ 1	≥ 1000	≥ 1			< 10
COC/C=C/C(=O)N1CCCC[C@H]1c1nc(-c2ccc(C(=O)Nc3nccc(C)n3)cc2)c2c(N)nccn12 [Example 88, (S,E)-4-(8-amino-3-(1-(4-methoxybut-2-enoyl)piperidin-2-yl)imidazo[1,5-a]pyrazin-1-yl)-N-(4-methylpyrimidin-2-yl)benzamide]	≥ 1000	100 to 1000	<1	≥ 1	≥ 1000	≥ 1			
C=CC(=O)N1CCCC[C@H]1c1nc(-c2ccc(C(=O)Nc3ncc(CC)s3)cc2)c2c(N)nccn12 [Example 117, (S)-4-(3-(1-acryloylpiperidin-2-yl)-8-aminoimidazo[1,5-a]pyrazin-1-yl)-N-(5-ethylthiazol-2-yl)benzamide]	≥ 1000			≥ 1	≥ 1000	≥ 1			< 10

Next, values leading:

EC50 (FynT enzyme) [nM]	EC50 (Btk enzyme (His-Btk)) [nM]	EC50 Btk activity values (Btk enzyme (His-Btk); [1]) [µM]	EC50 (Lck enzyme) [µM]	EC50 (Src enzyme) [nM]	EC50 (Lyn enzyme; [2]) [µM]	EC50 Btk activity values (Btk enzyme (His-Btk); [3]) [µM]	EC50 (Lyn enzyme; EC50 Lyn activity values, 60 min pre-incubation, 2 μM ATP, bin bound in μM) [µM]	EC50 (Btk enzyme (His-Btk); [4]) [nM]	Structure (SMILES)
≥ 1000	100 to 1000	<1	≥ 1	≥ 1000	≥ 1				COC/C=C/C(=O)N1CCCC[C@H]1c1nc(-c2ccc(C(=O)Nc3ccccn3)cc2C)c2c(N)nccn12 [Example 85, 4-(8-amino-3-((S)-1-((E)-4-methoxybut-2-enoyl)piperidin-2-yl)imidazo[1,5-a]pyrazin-1-yl)-3-methyl-N-(pyridin-2-yl)benzamide]
≥ 1000	10 to 100		≥ 1	≥ 1000		<0.1	≥ 1		CC#CC(=O)N1CCCC[C@H]1c1nc(-c2ccc(C(=O)Nc3nccc(C)n3)cc2)c2c(N)nccn12 [Example 89, (S)-4-(8-amino-3-(1-but-2-ynoylpiperidin-2-yl)imidazo[1,5-a]pyrazin-1-yl)-N-(4-methylpyrimidin-2-yl)benzamide]
≥ 1000	10 to 100		≥ 1	≥ 1000	≥ 1	<0.1			COC/C=C/C(=O)N1CCC[C@H]1c1nc(-c2ccc(C(=O)Nc3nc4c(s3)CCCC4)cc2)c2c(N)nccn12 [Example 82, (S,E)-4-(8-amino-3-(1-(4-methoxybut-2-enoyl)pyrrolidin-2-yl)imidazo[1,5-a]pyrazin-1-yl)-N-(4,5,6,7-tetrahydrobenzo[d]thiazol-2-yl)benzamide]
≥ 1000			≥ 1	≥ 1000	≥ 1			< 10	CC#CC(=O)N1CCC[C@H]1c1nc(-c2ccc(C(=O)Nc3cc(C(C)C)ccn3)cc2)c2c(N)nccn12 [Example 102, (S)-4-(8-amino-3-(1-but-2-ynoylpyrrolidin-2-yl)imidazo[1,5-a]pyrazin-1-yl)-N-(4-isopropylpyridin-2-yl)benzamide]
≥ 1000			≥ 1	≥ 1000	≥ 1			< 10	CCCc1ccnc(NC(=O)c2ccc(-c3nc([C@@H]4CCCCN4C(=O)/C=C/COC)n4ccnc(N)c34)cc2)c1 [Example 121, (S,E)-4-(8-amino-3-(1-(4-methoxybut-2-enoyl)piperidin-2-yl)imidazo[1,5-a]pyrazin-1-yl)-N-(4-propylpyridin-2-yl)benzamide]
≥ 1000	10 to 100		≥ 1	≥ 1000	≥ 1	<0.1			COC/C=C/C(=O)N1CCCCC[C@H]1c1nc(-c2ccc(C(=O)Nc3ccccn3)cc2)c2c(N)nccn12 [Example 97, (E)-4-(8-amino-3-(1-(4-methoxybut-2-enoyl)azepan-2-yl)imidazo[1,5-a]pyrazin-1-yl)-N-(pyridin-2-yl)benzamide]
≥ 1000	10 to 100		≥ 1	≥ 1000	≥ 1	<0.1			Nc1nccn2c([C@@H]3CCCN3C(=O)c3ccnc(Cl)n3)nc(-c3ccc(C(=O)Nc4cc(C(F)(F)F)ccn4)cc3)c12 [Example 119, (S)-4-(8-amino-3-(1-(2-chloropyrimidine-4-carbonyl)pyrrolidin-2-yl)imidazo[1,5-a]pyrazin-1-yl)-N-(4-(trifluoromethyl)pyridin-2-yl)benzamide]
≥ 1000			≥ 1	≥ 1000	≥ 1			< 10	CC#CC(=O)N1CCOC[C@H]1c1nc(-c2ccc(C(=O)Nc3ccccn3)cc2)c2c(N)nccn12 [Example 38, (R)-4-(8-Amino-3-(4-but-2-ynoylmorpholin-3-yl)imidazo[1,5-a]pyrazin-1-yl)-N-(pyridin-2-yl)benzamide]
≥ 1000			≥ 1	≥ 1000	≥ 1			< 10	C=CC(=O)N1CCCC[C@H]1c1nc(-c2ccc(C(=O)Nc3nccc(C)n3)cc2)c2c(N)nccn12 [Example 21, (S)-4-(3-(1-Acryloylpiperidin-2-yl)-8-aminoimidazo[1,5-a]pyrazin-1-yl)-N-(4-methylpyrimidin-2-yl)benzamide]
≥ 1000	10 to 100		≥ 1	≥ 1000	≥ 1	<0.1			COC/C=C/C(=O)N1CCC[C@H]1c1nc(-c2ccc(C(=O)Nc3ccccn3)cc2)c2c(N)nccn12 [Example 4, (S,E)-4-(8-amino-3-(1-(4-methoxybut-2-enoyl)pyrrolidin-2-yl)imidazo[1,5-a]pyrazin-1-yl)-N-(pyridin-2-yl)benzamide]
≥ 1000	10 to 100		≥ 1	≥ 1000	≥ 1	<0.1			Cc1cc(C(=O)Nc2ccccn2)ccc1-c1nc([C@@H]2CCCCN2C(=O)c2ccnc(Cl)n2)n2ccnc(N)c12 [Example 56, 4-(8-amino-3-((S)-1-(2-chloropyrimidine-4-carbonyl)piperidin-2-yl)imidazo[1,5-a]pyrazin-1-yl)-3-methyl-N-(pyridin-2-yl)benzamide]
